Data from patent US6331555A, “Treatment of platelet derived growth factor related disorders such as cancers” (priority 1999, dated 2001).
Read-outs that look alike come from different tables or passages of the source.

Experiments:
[1] = Effects of A10 on body weight and organs; format: in vivo, mouse; conditions: 20 mg/kg/day, 100 day period
Protocol: Vehicle control animals received IP administration of 100 μL PBTE:D5W (1:1, v:v) every day for 101 days, and untreated control animals received no treatments. There were eight animals in each group. Weights were measured on day 0 (one day prior to drug administration) and two times/week until experiment termination. The percent weight change was calculated as mean weight at each determination as compared to the mean weight on day 0.
However, after several weeks, the animals gained weight at a rate similar to untreated or vehicle-treated animals.

[2] = mouse, in vivo
Protocol: Plasma was prepared and frozen in liquid nitrogen. Tissues and organs were resected and immediately frozen in liquid nitrogen. After the addition of an internal standard, plasma samples were acidified with HCl and extracted with acetonitrile. The acetonitrile fraction was evaporated to dryness in a vacuum centrifuge with heating and redissolved in methanol. Tissue and organ samples were homogenized according to the weight ratio of 1:5 (w:v) in 50 mM Tris-HCl, pH 7.4, at 20,000 rev/min, using a tissue homogenizer (Brinkmann Polytron Model PT3000). After the addition of an internal standard, the homogenate was acidified with HCl and then extracted with acetonitrile. The acetonitrile fraction was then extracted with an equal volume of diethyl ether. The ether fraction was evaporated to dryness in a vacuum centrifuge with heating and redissolved in methanol.
Samples for HPLC analysis were injected onto a Hewlett Packard Hypersil 5-μm C18 cartridge column (100×4.6 mm). The mobile phase was methanol:35 mM KH2 PO4 (pH 4.5) 55:45 containing 4 mM triethylamine. The flow rate was 1.2 mL/min. The compounds were monitored by UV absorption at 254 nm using a Hewlett-Packard diode-array detector (HP Model 1090). Plasma and tissue concentrations were determined from standard curves using peak area for quantitation. […] The internal standard used was 5-methyl-pyrazole-4-carboxylic acid-(4-trifluoromethyl)-anilide.
Table XXII. […] Plasma and brain samples were prepared and analyzed by HPLC as described in Appendix 6. All results were calculated by the method of internal standardization. NT= not tested, ND= not detected.

Q: Which results are given for `Cc1oncc1C(=O)Nc1ccc(C(F)(F)F)cc1` [Compound A10, 5-methylisoxazole-4 carboxylic acid-(4-trifluromethyl)-anilide]?
A: mortality [1]: no mortality was observed; plasma concentration, single dose ([2]; 20 mg/kg): not detected; plasma concentration, single dose ([2]; 40 mg/kg): not detected
